# Laboratory results published in paper PMC5796017, “Enantiomeric Effect of D-Amino Acid Substitution on the Mechanism of Action of α-Helical Membrane-Active Peptides” (International Journal of Molecular Sciences, 2017).
# Experiments:
# [1] = test system: human red blood (hRBC) cells; assay: Hemolytic activity assay; assay type: cell-based; conditions: 2% human RBC in PBS, 37 °C, 2 h, absorbance 578 nm, triplicate
# Procedure, shortened: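 Healthy human RBCs (2% suspension in PBS) were incubated with serially diluted peptides for 2 h at 37 °C, and released hemoglobin in supernatant was read at 578 nm. Percent hemolysis was taken relative to distilled water (100%) after subtracting PBS (0%); run in triplicate.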
# E. coli ATCC25922 = assay: AFM imaging; assay type: cell-based, Escherichia coli; conditions: treatment 30 min, imaged in air, contact mode
# Protocol: The mechanism of the interaction of the peptides with the different kinds of membranes was further analyzed by AFM. E. coli and HeLa cells were imaged to observe the morphologic change of cell membranes with, and without, treatment with V13K. […] Similarly, the surface of untreated cells fixed with, or without, 4% paraformaldehyde were intact and the membrane surface appeared quite smooth (Figure 4E–H).
# The AFM imaging of E. coli ATCC25922 and HeLa cells before, and after, incubation with V13K were performed using an AFM 5500 (Agilent Technologies, Chandler, AZ, USA). The AFM imaging of E. coli was used on the contact mode and the cantilever was used as the B-tip (DNP, B-tip, Bruker AFM probes, California, CA, USA). The AFM imaging of HeLa was used on the AAC mode and the cantilever was used as the D-tip (DNP, D-tip, Bruker AFM probes, Camarillo, California, CA, USA). A single bacterial colony was picked and cultured in Mueller–Hinton (MH) medium for 18–20 h. […] The E. coli and peptide-treated bacteria samples (after treatment for 30 min) were applied onto mica and imaged in air using the contact mode and recorded with 512 × 512 pixels. The images of HeLa cells and peptide-treated HeLa cells (after treatment for 5 min) were obtained in Dulbecco’s Modified Eagle’s medium (DMEM) using the Acoustic AC (AAC) mode and recorded with 512 × 512 pixels. […]
# [2] = Circular dichroism (CD) secondary structure; assay type: physicochemical
# Procedure, shortened: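 Peptide secondary structure was measured by circular dichroism on a Jasco J-810 CD spectrometer at 25 °C, in benign KP buffer to mimic a hydrophilic environment and in 50% 2,2,2-trifluoroethanol (benign buffer: TFE = 1:1, vol/vol) to mimic a membrane-like hydrophobic environment. Mean residue molar ellipticity at 222 nm, [θ]222 (degree·cm^2·dmol^−1), calculated as [θ] = θ/10lCMn, gave relative helical content.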
# [3] = RP-HPLC retention time as relative hydrophobicity; assay type: physicochemical; conditions: 25 °C, used by the paper as measure of relative hydrophobicity
# Protocol: The RP-HPLC retention time has been widely used to represent the relative hydrophobicity of peptides in many studies.The relative hydrophobicity of the peptides was determined by the RP-HPLC retention times at 25 °C. The change in hydrophobicity of the peptides caused by D-amino acid substitutions was mainly due to the disruption of the helical structure.
# P. aeruginosa ATCC27853 = assay: Antimicrobial activity, microtiter dilution MIC; assay type: cell-based, Pseudomonas aeruginosa; conditions: G−; MH medium, 5 × 10^5 CFU/mL, 37 °C, 24 h, triplicate
# Procedure, shortened: (§1)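 Broth microdilution in Mueller–Hinton medium, inoculum 5 × 10^5 CFU/mL, serially diluted peptide, 24 h at 37 °C. MIC taken as lowest peptide concentration preventing growth; triplicate runs.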
# S. epidermidis ATCC12228 = assay: Antimicrobial activity, microtiter dilution MIC; assay type: cell-based, Staphylococcus epidermidis; conditions: G+; MH medium, 5 × 10^5 CFU/mL, 37 °C, 24 h, triplicate
# Procedure, shortened: as §1
compound,measurement,setting,value
CC[C@H](C)[C@H](NC(=O)[C@H](C)NC(=O)[C@H](CCCCN)NC(=O)[C@H](CC(C)C)NC(=O)[C@H](C)NC(=O)[C@@H](NC(=O)[C@H](Cc1cnc[nH]1)NC(=O)[C@H](CC(C)C)NC(=O)[C@@H](NC(=O)[C@@H](NC(=O)[C@H](CCCCN)NC(=O)[C@H](CCCCN)NC(=O)[C@H](C)NC(=O)[C@H](CO)NC(=O)[C@H](CCCCN)NC(=O)[C@H](Cc1ccccc1)NC(=O)[C@@H](NC(=O)[C@H](CCCCN)NC(=O)[C@H](CC(C)C)NC(=O)[C@H](Cc1ccccc1)NC(=O)[C@H](CO)NC(=O)[C@H](CCCCN)NC(=O)[C@H](Cc1c[nH]c2ccccc12)NC(=O)[C@H](CCCCN)NC(C)=O)[C@@H](C)O)[C@@H](C)O)C(C)C)[C@@H](C)O)C(=O)N[C@@H](CO)C(=O)N[C@@H](CO)C(N)=O [Peptide V13K],MHC (minimal hemolytic concentration),[1],250 µM
same,Morphology of bacterial membrane by AFM,E. coli ATCC25922,obvious damage to the morphology of bacterial membrane
same,"[θ]222, benign","[2]; CD, KP buffer (100 mM KCl, 50 mM KH2PO4/K2HPO4, pH 7.4), 75 μM peptide, 25 °C",−5617.46 degree·cm^2·dmol^−1
same,"[θ]222, 50% TFE","[2]; CD, KP buffer with 50% TFE, 75 μM peptide, 25 °C","−50,520.3 degree·cm^2·dmol^−1"
same,"α-Helix (%), 50% TFE (relative helicity)","[2]; KP buffer with 50% TFE, relative to molar ellipticity of V13K in 50% TFE",100%
same,"α-Helix (%), benign","[2]; KP buffer, relative to molar ellipticity of V13K in 50% TFE",11.1%
same,"tR (RP-HPLC retention time), relative hydrophobicity",[3],44.48 min
same,MIC,P. aeruginosa ATCC27853,8 µM
same,MIC,S. epidermidis ATCC12228,4 µM
